The values below come from patent publication US5001127A, “4-substituted pyrazolo[3,4-d]pyrimidine derivatives” (Ortho Pharmaceutical Corporation, priority 1989, dated 1991).

In this test the test system is Adult mongrel dogs. The test is described as follows: Cardiotonic activity in anesthetized dogs (MAP, HR, dP/dtmax, contractile force), iv infusion. It counts as in vivo. As to conditions: for change in vivo at 1.875 mg/kg / ED (50% increase): Canis lupus familiaris; for ED (50% increase): dose producing 50% increase above baseline in myocardial contractile force, graphical estimation (n<3) or linear regression (n≥3), read-out: contractile force (CF) ED50. As to the method: Adult mongrel dogs were anesthetized with sodium pentobarbital (45 mg/kg, i.p.) and artificially respired. Mean arterial pressure (MAP) was recorded from a cannulated femoral artery and drugs were infused into a cannulated femoral vein. The arterial pressure pulse was used to trigger a cardiotachometer for determination of heart rate (HR). Left ventricular pressure was measured with a Millar catheter and dP/dtmax was derived. A right thoracotomy was performed and myocardial contractile force (CF) was measured with a Walton Brodie strain gauge sutured to the right ventricle. The ventricular muscle was stretched to produce a baseline tension of 100 g. A standard dose of dopamine (10-15 ug/kg/min for 3 min) was administered to determine myocardial responsiveness to inotropic stimulation. Test compounds were solubilized in a small volume of DMF diluted to a final concentration of 10% in physiological saline. Alternatively, where possible, a soluble hydrochloride salt was prepared by addition of 0.1N HCl diluted in physiological saline. Vehicles were tested in appropriate volumes and found to exert less than a 5% effect on contractile force. For iv studies, compounds were administered by infusion pump (one drug per animal) at rates of 0.58-2.2 mL/min in three to four stepwise increasing doses. Each dose was infused over 5 min immediately after the effect of the previous dose peaked. MAP, HR, dP/dtmax and CF responses were continuously monitored on a Beckman or Gould recorder and expressed as a percent change from pre-drug control values vs. the cumulative dose of drug administered. For these studies, n represents the number of test animals used.
Quantitation of the inotropic potency was obtained by calculation of the contractile force (CF) ED50. This was defined as the dose of compound that produced a 50% increase above baseline in myocardial contractile force. The value was obtained from three to four point dose-response curves using either graphical estimation (n<3) or linear regression analysis (n≥3). Numbers in parentheses are number of animals screened.

[1] abbreviates: cumulative dose 1.875 mg/kg, femoral artery, read-out: MAP (mean arterial pressure), % Δ from control.
[2] abbreviates: cumulative dose 1.875 mg/kg, read-out: HR (heart rate), % Δ from control.
[3] abbreviates: cumulative dose 1.875 mg/kg, read-out: dP/dt (left ventricular dP/dtmax), % Δ from control.
The mark [4] stands for this setting: cumulative dose 1.875 mg/kg, right ventricle strain gauge, read-out: CF (myocardial contractile force), % Δ from control.

Where two headings read alike, the source gives them in different places.

For the compound `OC(CSc1ncnc2[nH]ncc12)CN1CCN(C(c2ccc(F)cc2)c2ccc(F)cc2)CC1` (stereo not drawn) [Example 1], the ED (50% increase) was 0.225 mg/kg. Further, under setting [1], the change in vivo at 1.875 mg/kg is -3%. Moreover, the change in vivo at 1.875 mg/kg under setting [2] is -10%. The change in vivo at 1.875 mg/kg under setting [3] worked out at 124%. The change in vivo at 1.875 mg/kg under setting [4] worked out at 205%.
Regarding `OC(CSc1ncnc2[nH]ncc12)CN1CCN(C(c2ccccc2)c2ccccc2)CC1` (stereo not drawn) [Example 2, 4-[2-Hydroxy-1-[(diphenylmethyl)piperazin-4-yl)-3-propanylthio]-1H-pyrazolo[3,4-d]pyrimidine Hemihydrate], the change in vivo at 1.875 mg/kg was -12% under setting [1], -11% under setting [2], 48% under setting [3] and 97% under setting [4].
The matching figures for `OC(COc1ncnc2c1cnn2C1CCCCO1)CN1CCN(C(c2ccc(F)cc2)c2ccc(F)cc2)CC1` (stereo not drawn) [Example 3, 4-[3-[4-[Bis(4-fluorophenyl)methyl]-piperazin-1-yl]-2-hydroxy-propoxy]-1-(tetrahydropyran-2-yl)pyrazolo[3,4-d]pyrimidine]: -13%, 1%, 1% and 14%.
Consider `OC(CSc1ncnc2[nH]ncc12)CN1CCN(C(c2ccc(Cl)cc2)c2ccc(Cl)cc2)CC1` (stereo not drawn) [Example 4, 4-[1-[1-[Bis(4-chlorophenyl)methyl]piperazin-4-yl]-2-hydroxy-3-pronanylthio]-1H-pyrazolo[3,4-d]pyrimidine], for which the ED (50% increase) is 0.45 mg/kg. Moreover, the change in vivo at 1.875 mg/kg under setting [1] was 8%. For the same compound, under setting [2], the change in vivo at 1.875 mg/kg is 1%. Moreover, the change in vivo at 1.875 mg/kg under setting [3] came out at 90%. Moreover, the change in vivo at 1.875 mg/kg under setting [4] was found to be 163%.
Take `OC(CSc1ncnc2c1cnn2CC1CO1)CN1CCN(C(c2ccccc2)c2ccccc2)CC1` (stereo not drawn) [Example 5, 1-(1,2-Epoxy-3-propanyl)-4-[1-(diphenylmethylpiperazin-4-yl]-2-hydroxy-3-propanylthio]-1H-pyrazolo[3,4-d]pyrimidine]: where the note is “cumulative dose 1.875 mg/kg”, the “HR (heart rate), % Δ from control” value was -14 % Δ from control and the “dP/dt (left ventricular dP/dtmax), % Δ from control” value was 28 % Δ from control. Moreover, the “MAP (mean arterial pressure), % Δ from control” value (cumulative dose 1.875 mg/kg, femoral artery) is reported as -8 % Δ from control. Further, the “CF (myocardial contractile force), % Δ from control” value (cumulative dose 1.875 mg/kg, right ventricle strain gauge) turned out to be 38 % Δ from control.
For the compound `OC(CNc1ncnc2[nH]ncc12)CN1CCN(C(c2ccc(F)cc2)c2ccc(F)cc2)CC1` (stereo not drawn) [Example 7, 4-[3-[4-Bis(4-fluorophenyl)methyl]-1-piperazinyl]-2-hydroxypropylamino-1H-pyrazolo[3,4-d]pyrimidine sesquihydrate], the change in vivo at 1.875 mg/kg by setting is: under setting [1], 6%; under setting [2], -20%; under setting [3], 33%; under setting [4], 111%.
The matching figures for `CC(=O)OC(CNc1ncnc2[nH]ncc12)CN1CCN(C(c2ccc(F)cc2)c2ccc(F)cc2)CC1` (stereo not drawn) [Example 8, 4-[3-[4-Bis(4-fluorophenyl)methyl]-1-piperazinyl]-2-acetoxypropylamino-1H-pyrazolo[3,4-d]pyrimidine Hemihydrate]: 6%, -1%, 61% and 135%.
As to `CN(CC(O)CN1CCN(C(c2ccc(F)cc2)c2ccc(F)cc2)CC1)c1ncnc2[nH]ncc12` (stereo not drawn) [Example 9, 4-[3-[4-Bis(4-fluorophenyl)methyl-1-piperazinyl]-2-hydroxypropylamino-N-methylamino-1H-pyrrazolo[3,4-d]pyrimidine Hemihydrate], the change in vivo at 1.875 mg/kg by setting is: under setting [1], 4%; under setting [2], 3%; under setting [3], 52%; under setting [4], 54%.
As to `CCN(CC(O)CN1CCN(C(c2ccc(F)cc2)c2ccc(F)cc2)CC1)c1ncnc2[nH]ncc12` (stereo not drawn) [Example 10, 4-[3-[4-Bis(4-fluorophenyl)methyl]-1-piperazinyl]-2-hydroxypropyl-N-ethylamino]-1H-pyrazolo[3,4-d]pyrimidine.1/4 Hydrate], the change in vivo at 1.875 mg/kg came to 3% under setting [1], 13% under setting [2], 44% under setting [3] and 63% under setting [4].
On to `CON(CC(O)CN1CCN(C(c2ccc(F)cc2)c2ccc(F)cc2)CC1)c1ncnc2[nH]ncc12` (stereo not drawn) [Example 11, 4-[3-[4-Bis(4-fluorophenyl)methyl-1-piperazinyl-2-hydroxypropyl-N-methoxyamino]-(1H)-pyrazolo[3,4-d]pyrimidine.5/4 Hydrate], for which the change in vivo at 1.875 mg/kg was -2% under setting [1], 5% under setting [2], 25% under setting [3] and 37% under setting [4].
